According to patent US9359322B2, “C-linked glucuronide of N-(4-hydroxybenzyl) retinone, analogs thereof, and methods of using the same to inhibit neoplastic cell growth” (Wisconsin Alumni Research Foundation, priority 2005, dated 2016):
Marks after values point to notes of the source that are not given here.

Legend:
RARβ = target: T1, RARβ (Homo sapiens, UniProt P10826); assay: Nuclear retinoid receptor binding assay, competition with [3H]all-trans RA; conditions: FIG. 3A
T1 sequence (P10826 1-455): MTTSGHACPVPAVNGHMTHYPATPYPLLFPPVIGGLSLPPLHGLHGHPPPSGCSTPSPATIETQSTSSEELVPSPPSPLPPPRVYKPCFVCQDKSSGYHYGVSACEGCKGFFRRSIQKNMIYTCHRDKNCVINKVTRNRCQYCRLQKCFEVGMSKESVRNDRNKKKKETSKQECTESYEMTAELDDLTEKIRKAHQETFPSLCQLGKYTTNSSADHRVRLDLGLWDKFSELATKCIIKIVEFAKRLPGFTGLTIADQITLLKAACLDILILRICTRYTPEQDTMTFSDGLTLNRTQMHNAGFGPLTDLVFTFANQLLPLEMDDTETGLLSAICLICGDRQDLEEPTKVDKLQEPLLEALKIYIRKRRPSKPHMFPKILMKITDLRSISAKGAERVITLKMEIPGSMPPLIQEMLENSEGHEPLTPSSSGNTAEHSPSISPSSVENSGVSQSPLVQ
Procedure: (§1) Nuclear Retinoid Receptor Binding Assay. Competition of 3 and 7 and 4-HBRCGlucose with [^3H]-all-trans-RA (4.2-4.6 nM) for binding to RARβ and RARγ and with [^3H]-9-cis RA (1.9 nM) for binding to RXRγ was determined using an in vitro ligand binding assay.^41, 42 [^3H]-all-trans-RA (40.5 Ci/mmole) or [^3H]-9-cis-RA (69.4 Ci/mmole) was added to receptor-containing extracts in the absence and presence of increasing concentrations of competing ligands at 4° C. for 3 hr. A hydroxylapatite (HAP) assay was used to separate ligand bound to receptor from that free in solution, and the radioactivity associated with the HAP pellet was measured by scintillation counting.

RARγ = target: T2, RARγ (Homo sapiens, UniProt P13631); assay: as above; conditions: FIG. 3B
T2 sequence (P13631 1-454): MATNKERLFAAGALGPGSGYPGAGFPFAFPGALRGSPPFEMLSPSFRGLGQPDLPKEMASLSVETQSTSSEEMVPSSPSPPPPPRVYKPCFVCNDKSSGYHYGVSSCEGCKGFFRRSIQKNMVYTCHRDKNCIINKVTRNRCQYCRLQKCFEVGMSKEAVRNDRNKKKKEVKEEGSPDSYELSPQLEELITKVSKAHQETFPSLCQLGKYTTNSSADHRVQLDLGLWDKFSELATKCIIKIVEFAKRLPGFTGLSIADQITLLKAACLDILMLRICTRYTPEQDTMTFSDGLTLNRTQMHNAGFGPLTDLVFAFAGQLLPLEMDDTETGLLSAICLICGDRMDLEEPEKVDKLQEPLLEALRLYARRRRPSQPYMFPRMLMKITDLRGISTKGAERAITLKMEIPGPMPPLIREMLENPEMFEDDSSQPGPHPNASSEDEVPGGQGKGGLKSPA
Procedure: as §1

RARα = target: T3, RARα (Homo sapiens, UniProt P10276); assay: Nuclear retinoid receptor binding assay; conditions: 4-HBRCG up to 10^−4.5 M; data not shown
T3 sequence (P10276 1-462): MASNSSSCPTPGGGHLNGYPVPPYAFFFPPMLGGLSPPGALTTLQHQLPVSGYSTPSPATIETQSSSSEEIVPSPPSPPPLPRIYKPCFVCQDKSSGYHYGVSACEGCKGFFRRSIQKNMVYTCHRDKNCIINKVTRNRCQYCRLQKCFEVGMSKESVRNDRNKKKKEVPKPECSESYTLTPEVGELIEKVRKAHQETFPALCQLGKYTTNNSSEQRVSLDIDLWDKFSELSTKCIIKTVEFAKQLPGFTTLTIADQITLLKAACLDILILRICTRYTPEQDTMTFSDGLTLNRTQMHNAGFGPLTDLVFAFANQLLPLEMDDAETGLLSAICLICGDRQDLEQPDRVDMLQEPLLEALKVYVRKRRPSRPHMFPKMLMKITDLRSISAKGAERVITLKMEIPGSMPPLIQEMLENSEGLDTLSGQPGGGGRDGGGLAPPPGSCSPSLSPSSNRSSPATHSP

RXRγ = target: T4, RXRγ (Homo sapiens, UniProt P48443); assay: Nuclear retinoid receptor binding assay, competition with [3H]9-cis RA; conditions: 4-HBRCG up to 10^−4.5 M; data not shown
T4 sequence (P48443 1-463): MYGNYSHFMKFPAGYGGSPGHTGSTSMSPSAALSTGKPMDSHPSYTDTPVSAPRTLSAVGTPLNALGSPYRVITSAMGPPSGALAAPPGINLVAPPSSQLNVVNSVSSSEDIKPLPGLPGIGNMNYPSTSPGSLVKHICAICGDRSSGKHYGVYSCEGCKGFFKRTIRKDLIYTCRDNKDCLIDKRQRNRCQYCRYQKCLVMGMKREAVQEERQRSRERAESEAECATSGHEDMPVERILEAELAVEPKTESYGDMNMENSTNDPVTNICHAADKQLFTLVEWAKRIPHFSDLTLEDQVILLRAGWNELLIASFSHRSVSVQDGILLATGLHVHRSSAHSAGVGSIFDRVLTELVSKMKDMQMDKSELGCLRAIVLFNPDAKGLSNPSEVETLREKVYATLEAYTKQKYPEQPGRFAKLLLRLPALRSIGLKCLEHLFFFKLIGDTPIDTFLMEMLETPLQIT
Procedure: as §1

[1] = test system: MCF-7 human breast cancer cells; assay: Growth inhibition of MCF-7 human breast cancer cells; type: cell-based; conditions: 10^−5 M, 8-day period
Procedure: Inhibition of MCF-7 human breast cancer cell growth over an 8-day period was used as a means to assess the activity of 4-HBRCG and the analog 4-HBRCGlucose.
Growth inhibition of MCF-7 human breast cancer cells. MCF-7 cells were obtained from the American Type Culture Collection, Manassas, Va. They were maintained in DMEM medium supplemented with 4 g/L glucose, 3.7 g/L sodium bicarbonate and 10% heat-inactivated fetal calf serum. Cells were passaged into 12-well plates, cultured for 24 hours, after which time they were dosed with vehicle (0.2% ethanol) or retinoids; medium was changed and fresh vehicle or retinoids were added daily. Cells were harvested and the number of live cells was assessed using fluorescein diacetate, which yields a fluorescent product upon cleavage by metabolically active cells. Using fluorescent microscopy, at least 200 cells/well were counted with a hemacytometer.

[2] = test system: nuclear retinoic acid receptors (RAR); conditions: cited from earlier work
[3] = test system: DMBA-induced rat mammary tumor; assay: DMBA-induced rat mammary tumor model, retinoid-containing diets; type: in vivo
Procedure: Preliminary evaluation of the mammary tumor chemotherapeutic activity of 4-HBRCG (7) was conducted, and its toxicity profile was also assessed. As previously described,^7, 12 tumor-bearing female rats (treated ca. 50 days earlier with 7,12-dimethylbenz(a)anthracene [DMBA]) were fed the control or retinoid-containing diets (RA (2), 4-HPR (3) or 4-HBRCG (7)) at 2 mmole/kg diet for 22 days.
(§2) Animal Studies: Mammary tumors were induced by intragastric intubation of 50-day old female Sprague-Dawley rats (Harlan Industries, Indianapolis, Ind.) with a single dose of 15 mg DMBA in 1.0 ml of sesame oil per rat. The rats were then maintained on a powdered Teklad 22/5 rodent chow diet (W) 8640 (Harlan Industries, Indianapolis, Ind.), and allowed food and water ad libitum. Four months later, rats which had developed palpable tumors were randomly assigned to the experimental groups (4 rats/group). The retinoid-treated groups were fed diets supplemented with 2 mmol/kg diet of atRA, 4-HPR, or 4-HBRCG, respectively. The retinoids were added to the diet in a vehicle consisting of 25 ml of ethanol: tricaprylin (1:4 v/v) plus 2% (w/v) of α-tocopherol as previously described.^9 This vehicle was also added to the control diet. The additives were blended into the chow diets using a Hobart food mixer. The diets were fed in stainless steel feeders designed with food hoppers. The food was replaced weekly with freshly prepared diets. Food consumption was determined once weekly, and from that the average daily consumption/rat was estimated. These diets were continuously fed for 22 days. Animals were also weighted weekly and monitored for general health status and signs of possible toxicity due to treatment.
(§3) Baseline measurement of initial tumor sizes, numbers and rat body weights were determined immediately before commencement of treatments, and final measurements were recorded just prior to sacrifice of the animals. Animals were palpated for tumors twice weekly and tumor diameters were measured weekly by a micrometer caliper. Tumor volumes were calculated using the formula [V= 4/3 πr^3] where r is one-half the mean of the sum of the largest diameter and the axis at right angle to it. All tumors as well as lungs, liver, kidney and femur were excised at the end of the experiment for chemical and histopathological evaluation. Blood samples were also taken from each animal for determination of plasma retinol and triglyceride levels.

[4] = Body weight change during retinoid feeding; type: in vivo, rat; conditions: 2 mmol/kg diet
Procedure: as §2, §3

[5] = Terminal plasma drug levels (plasma retinoid assay, HPLC); type: in vivo, rat; conditions: female, Sprague-Dawley, rat, plasma, oral; day 22 of treatment; 2 mmol/kg diet; ± SEM; read-out: Plasma retinoid concentration (terminal plasma drug level)
Procedure: Plasma Retinoid Assay. To 500 μL of plasma was added 150 μL of ethanol containing 0.75 μg of internal standard (N-(4-chlorophenyl) retinamide). After mixing 30 sec., 500 μL of ethyl acetate was added followed by 1 min. of mixing and centrifugation for 5 minutes at 1000 rpm in an IEC CL centrifuge. The ethyl acetate layer was removed and syringe filtered through a 0.45 um filter. The ethyl acetate extraction was repeated two more times. The combined extracts were evaporated and the residue reconstituted in 100 μL of methanol. The methanol extract (20 μL) was analyzed by HPLC on a Beckman Instruments model 127 instrument equipped with a model 166 UV detector. Chromatography was done on a precolumn equipped 250×4.6 mm Bechman Ultrasphere ODS column with an 85% methanol/water mobile phase (both containing 10 mM ammonium acetate) flowing at 1 mL/min. Analysis for both internal standard and retinol was conducted at 350 nm and internal standard recoveries and retinol levels were determined by comparison with standard curves, with adjustment of the retinol level based on recovery. Recoveries of internal standard averaged ca. 78%. […] In the 4-HPR treated group, plasma levels of this retinoid were evaluated simultaneously in the same samples as above. In order to avoid interfering substances, plasma treatment retinoid levels for RA and 4-HBRCG were measured using the above system and a step gradient of 75% methanol for 15 min. followed by 85% methanol for 40 minutes.

[6] = Plasma triglyceride measurement; type: in vivo, rat; conditions: 2 mmol/kg diet, 22 days; FIG. 2A
Procedure: Plasma Triglyceride Measurement. Bloods were drawn from anesthetized animals in the presence of EDTA as an anticoagulant, and the resulting plasma was used for the measurement of plasma “true” triglyceride levels using a kit from Sigma-Aldrich (Saint Louis, Mo.). Briefly, the total plasma triglyceride and glycerol concentrations were determined, and the glycerol component was subtracted from the total plasma triglyceride measurement to obtain the “true” serum triglyceride concentration.

[7] = Femur bone mineral content; type: in vivo, rat; conditions: end of feeding study; FIG. 2B
Text: Bone Mineral Content. The femur was disarticulated from the leg, and the adhering soft tissue was removed by dissection. Femurs were scanned using the Lunar PIXImus 2 system (Model X2608, General Electric using the LUNAR software version 1.45), and control measurements were made using the small animal quality control phantom. Femurs were scanned 5 times each with re-positioning at each measure. The average value of the bone mineral content (BMC) in grams for each animal is reported as one independent measure.

CYP26A1 mRNA = assay: Induction of CYP26A1 mRNA in liver (Q-PCR); type: in vivo, rat; conditions: at sacrifice, retinoid-fed rats, 2 mmol/kg diet; FIG. 4
CYP26B1 mRNA = assay: Induction of CYP26B1 mRNA in lung (Q-PCR); type: in vivo, rat; conditions: at sacrifice, retinoid-fed rats, 2 mmol/kg diet; data not shown
[8] = number of individual tumors, 2 mmol/kg diet, 22 days

## CC1=C(/C=C/C(C)=C/C=C/C(C)=C/C(=O)Cc2ccc(C[C@@H]3O[C@H](CO)[C@@H](O)[C@H](O)[C@H]3O)cc2)C(C)(C)CCC1 [4-HBRCGlucose, 2,6-Anhydro-7-deoxy-7-[4-(retinoylmethyl)-phenyl]-D-glycero-D-gulo-heptinol]
RARβ
  Binding to RARβ: binds poorly
RARγ
  Binding to RARγ: binds poorly
RARα
  Binding to RARα: binds poorly
RXRγ
  Competition for [3H]9-cis RA binding to RXR: binds poorly
[1]
  State of MCF-7 cells at end of assay: the majority of the MCF-7 cells were dead at the end of the assay
[1]; FIG. 5
  Effect on number of live MCF-7 cells: reduction in the number of live cells

## CC1=C(/C=C/C(C)=C/C=C/C(C)=C/C(=O)Nc2ccc(CC3OC(C(=O)O)C(O)C(O)C3O)cc2)C(C)(C)CCC1 (stereo not shown) [compound 6, N-(4-hydroxyphenyl) retinamide-C-glucuronide]
[2]
  Affinity for binding to nuclear RAR relative to RA: low affinity relative to RA

## CC1=C(/C=C/C(C)=C/C=C/C(C)=C/C(=O)O)C(C)(C)CCC1 [Retinoic acid (2), all-trans retinoic acid]
[3]; 2 mmol/kg diet for 22 days
  % Change in tumor volume from baseline: −38 ^d %
[3]; 2 mmol/kg diet for 22 days, mean ± SEM
  Final tumor volume: 0.05 ± 0.02 cm^3
[3]; baseline before treatment, mean ± SEM
  Initial tumor volumes: 0.08 ± 0.03 cm^3
[3]; [8]
  Complete regression (tumors that totally disappeared): 1
  No effect: 1
  Partial regression (tumors with 25-75% decrease in volume): 8
[3]; number of tumors, 2 mmol/kg diet, 22 days
  New tumors: 0
[4]; feeding period
  Effect on normal body weight gain: significant reduction in normal body weight gain
[4]; relative to baseline body weight over 22 days
  % Weight change: +0.2 ^d %
[5]
  concentration at 22 day: 300 ± 100 ng/mL
[6]
  Effect on serum triglyceride concentration: dramatically increased serum triglyceride concentration
[7]
  Effect on femur bone mineral content vs control: significant reduction in femur BMC
CYP26A1 mRNA
  Induction of CYP26A1 mRNA in liver: 67 fold above control
CYP26B1 mRNA
  Induction of CYP26B1 mRNA in lung: 46 fold above control

## CC1=C(/C=C/C(C)=C/C=C/C(C)=C/C(=O)Nc2ccc(O[C@@H]3O[C@H](C(=O)O)[C@@H](O)[C@H](O)[C@H]3O)cc2)C(C)(C)CCC1 [compound 5, N-(4-hydroxyphenyl) retinamide-O-glucuronide]
[2]
  Affinity for binding to nuclear RAR relative to RA: low affinity relative to RA
